A value given as a limit tells only on which side of the number the result lay.

This test deals with T1, UCHL1 (Homo sapiens, UniProt P09936).
T1 construct: made in house; host or cells: HEK293T
T1 sequence (P09936 1-223): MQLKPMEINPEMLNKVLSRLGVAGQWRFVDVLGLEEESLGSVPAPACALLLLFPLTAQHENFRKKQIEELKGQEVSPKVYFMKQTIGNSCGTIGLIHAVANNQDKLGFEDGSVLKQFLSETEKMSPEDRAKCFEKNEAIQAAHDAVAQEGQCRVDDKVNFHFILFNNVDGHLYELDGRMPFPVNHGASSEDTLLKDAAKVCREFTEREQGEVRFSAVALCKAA
Briefly: UCHL1 biochemical IC50 assay (fluorescence polarisation). The settings on record: 30 min enzyme/compound pre-incubation at room temp, read after 2 hr incubation, read-out: Activity range (UCHL1 biochemical IC50 assay). An excerpt:
Biological Activity of Compounds of the Invention Abbreviations: TAMRA carboxytetramethylrhodamine PCR polymerase chain reaction PBS phosphate buffered saline EDTA ethylenediaminetetraacetic acid Tris 2-amino-2-(hydroxymethyl)-1,3-propanediol NP-40 Nonidet P-40, octylphenoxypolyethoxyethanol BSA bovine serum albumin In Vitro UCHL1 Inhibition Assay Expression and Purification of UCHL1
The UCHL1 construct was PCR amplified and cloned into a pFLAG-CMV-6a vector (Sigma-Aldrich) with an N-terminal FLAG tag. HEK293T cells were transfected with FLAG-UCHL1 using TransIT-LT1 transfection reagent (Mirus) according to the manufacturer's instructions. Cells were harvested 40 hours after transfection. Cells were washed once with PBS and scraped in lysis buffer (50 mM Tris, pH 7.5, 150 mM NaCl, 3 mM EDTA, 0.5% NP40, 10% glycerol, 5 mM beta-mercaptoethanol, protease inhibitors (complete mini, Roche) and phosphatase inhibitors (PhosSTOP mini, Roche). Lysates were incubated for 30 min on ice and centrifuged at 1200 rpm for 10 min at 4° C. Soluble supernatant was added to FLAG affinity resin (EZview Rad ANTI-FLAG M2 affinity gel, Sigma-Aldrich) equilibrated in low salt buffer (20 mM Tris, pH 7.5, 150 mM NaCl, 0.5 mM EDTA, 5 mM beta-mercaptoethanol) and incubated at 4° C. for 3 hours rotating. The resin was spun at 2000 rpm for 2 min and the supernatant was removed. The resin was washed two times with low salt buffer and one time with high salt buffer (20 mM Tris, pH 7.5, 500 mM NaCl, 0.5 mM EDTA, 5 mM beta-mercaptoethanol, protease inhibitors (complete mini, Roche) and phosphatase inhibitors (PhosSTOP mini, Roche). To elute the bound UCHL1, elution buffer (10 mM Tris, pH 7.5, 150 mM NaCl, 0.5 mM FDTA, 10% glycerol, 0.5% NP40, 5 mM beta-mercaptoethanol, 0.15 mg/ml 3×FLAG peptide (Sigma-Aldrich)) was added to the resin and incubated at 4° C. for 2.5 hours rotating. The resin was centrifuged at 4000 rpm for 30 seconds, and the supernatant containing purified FLAG-UCHL1 was removed and stored at −80° C.
UCHL1 Biochemical IC50 Assay
Dilution plates were prepared at 21 times the final concentration (2100 μM for a final concentration of 100 µM) in 50% DMSO in a 96-well polypropylene V-bottom plate (Greiner #651201). A typical 8-point dilution series to be 100, 30, 10, 3, 1, 0.3, 0.1, 0.03 μM final. Reactions were performed in duplicate in black 384 well plates (small volume, Greiner 784076) in a final reaction volume of 21 μl. Either 1 μl of 50% DMSO or diluted compound was added to the plate. UCHL1 was diluted in reaction buffer (20 mM Tris, pH 7.5, 100 mM NaCl, 0.05% Tween 20, 0.5 mg/ml BSA, 5 mM—beta mercaptoethanol) to the equivalent of 0.05 μl/well and 10 μl of diluted UCHL1 was added to the compound. Enzyme and compound were incubated for 30 min at room temp. Reactions were initiated by the addition of 50 nM of TAMRA labelled peptide linked to ubiquitin via an iso-peptide bond as fluorescence polarisation substrate. Reactions were read immediately after addition of substrate and following a 2 hr incubation at room temperature. Readings were performed on a Pherastar Plus (BMG Labtech). λ Excitation 540 nm; k Emission 590 nm.
In general, IC50 refers to the concentration that inhibits the measured activity by half. Regarding `N#CN1CCC(C(=O)Nc2cc(-c3ccccc3)on2)C1` (stereo not drawn) [Example 15, 1-cyano-N-(5-phenylisoxazol-3-yl)pyrrolidine carboxamide], the IC50 is 1 to 10 µM.

Consider `N#CN1CC[C@H](C(=O)Nc2cn3ccccc3n2)C1` [Example 49, (S)-1-cyano-N-N-(imidazo[1,2-a]pyridin-2-yl)-pyrrolidine-3-carboxamide], for which the IC50 is 1 to 10 µM.

`Cc1noc(C)c1-c1ccc2nc(NC(=O)[C@H]3CCN(C#N)C3)cn2c1` [Example 128, (S)-1-cyano-N-(6-(3,5-dimethylisoxazol-4-yl)imidazo[1,2-a]pyridin-2-yl)pyrrolidine-3-carboxamide]: the IC50 was under 1 µM.

With `CN1CCC(n2cnc(NC(=O)[C@H]3CCN(C#N)C3)c2)C1` (stereo partly drawn) [Example 188, (3S)-1-cyano-N-(1-(1-methylpyrrolidin-3-yl)-1H-imidazol-4-yl)pyrrolidine-3-carboxamide], the IC50 lay within 1 to 10 µM.

Turning to `CCCn1cnc2cc(NC(=O)C3CCN(C#N)C3)ccc21` (stereo not drawn) [Example 40, 1-cyano-N-(1-propyl-1H-benzo[d]imidazol-5-yl)pyrrolidine-3-carboxamide], the IC50 was in the range of 1 to 10 µM.

Consider `CN(c1ccccc1)c1cnc(NC(=O)C2CCN(C#N)C2)s1` (stereo not drawn) [Example 94, 1-cyano-N-(5-(methyl(phenyl)amino)thiazol-2-yl)pyrrolidine-3-carboxamide], for which the IC50 was under 1 µM.

With `COC[C@@H]1CCCN1c1cnc(NC(=O)[C@H]2CCN(C#N)C2)s1` [Example 100, (S)-1-cyano-N-(5-((S)-2-(methoxymethyl)pyrrolidin-1-yl)thiazol-2-yl)pyrrolidine-3-carboxamide], the IC50 was under 1 µM.

Regarding `Cc1n[nH]c(C)c1-c1ccc2nc(NC(=O)[C@H]3CCN(C#N)C3)sc2c1` [Example 125, (S)-1-cyano-N-(6-(3,5-dimethyl-1H-pyrazol-4-yl)benzo[d]thiazol-1-2-yl)pyrrolidine-3-carboxamide], the IC50 is under 1 µM.

On to `N#CN1CC[C@H](C(=O)Nc2cc3n(n2)CCN(Cc2ccccc2)C3)C1` [Example 242, (S)—N-(5-benzyl-4,5,6,7-tetrahydropyrazolo[1,5-a]pyrazin-2-yl)-1-cyanopyrrolidine-3-carboxamide], for which the IC50 was under 1 µM.

Consider `Cc1nn(C)c2ccc(-n3cnc(NC(=O)[C@H]4CCN(C#N)C4)c3)cc12` [Example 298, (S)-1-cyano-N-(1-(1,3-dimethyl-1H-indazol-5-yl)-1H-imidazol-4-yl)pyrrolidine-3-carboxamide], for which the IC50 was under 1 µM.

Consider `N#CN1CC[C@H](C(=O)Nc2ncc(-c3ccc(S(N)(=O)=O)cc3)s2)C1` [Example 221, (S)-1-cyano-N-(5-(4-sulfamoylphenyl)thiazol-2-yl)pyrrolidine-3-carboxamide], for which the IC50 is under 1 µM.

`Cn1ncc2cc(-c3cnc(NC(=O)[C@H]4CCN(C#N)C4)s3)ccc21` [Example 226, (S)-1-cyano-N-(5-(1-methyl-1H-indazol-5-yl)thiazol-2-yl)pyrrolidine-3-carboxamide]: the IC50 is under 1 µM.

Take `Cc1cccc(C)c1-c1ccc2nc(NC(=O)[C@H]3CCN(C#N)C3)sc2c1` [Example 287, (S)-1-cyano-N-(6-(2,6-dimethylphenyl)benzo[d]thiazol-2-yl)pyrrolidine-3-carboxamide]: the IC50 is under 1 µM.

In the case of `Cc1noc(C)c1-c1ccc2nc(NC(=O)[C@H]3CCN(C#N)C3)cn2c1C` [Example 137, (S)-1-cyano-N-(6-(3,5-dimethylisoxazol-4-yl)-5-methylimidazo[1,2-a]pyridin-2-yl)pyrrolidine-3-carboxamide], the IC50 was under 1 µM.

As to `N#CN1CC[C@H](C(=O)Nc2cc3cccnc3cn2)C1` [Example 256, (S)-1-cyano-N-(1,7-naphthyridin-6-yl)pyrrolidine-3-carboxamide], the IC50 lay in the range of 1 to 10 µM.

Consider `COc1ccc(-n2cnc(NC(=O)[C@H]3CCN(C#N)C3)c2)cc1` [Example 159, (S)-1-cyano-N-(1-(4-methoxyphenyl)-1H-imidazol-4-yl)pyrrolidine-3-carboxamide], for which the IC50 was under 1 µM.

In the case of `N#CN1CCC(C(=O)Nc2ccc(N3CCCCC3)cn2)C1` (stereo not drawn) [Example 29, 1-cyano-N-(5-(piperidin-1-yl)pyridin-2-yl)pyrrolidine-3-carboxamide], the IC50 is 1 to 10 µM.

In the case of `N#CN1C[C@@H](C(=O)Nc2ncc(-c3ccccc3)s2)[C@H](c2cncnc2)C1` (relative stereo) [Example 283, trans-1-cyano-N-(5-phenylthiazol-2-yl)-4-(pyrimidin-5-yl)pyrrolidine-3-carboxamide], the IC50 lay within 1 to 10 µM.

`N#CN1CC[C@H](C(=O)Nc2ncc(N3Cc4ccccc4C3)s2)C1` [Example 97, (S)-1-cyano-N-(5-(isoindolin-2-yl)thiazol-2-yl)pyrrolidine-3-carboxamide]: the IC50 is under 1 µM.

As for `N#CN1CC[C@H](C(=O)Nc2cn(CC3CCOCC3)cn2)C1` [Example 165, (S)-1-cyano-N-(1-((tetrahydro-2H-pyran-4-yl)methyl)-1H-imidazol-4-yl)pyrrolidine-3-carboxamide], the IC50 was 1 to 10 µM.

As to `N#CN1CC[C@H](C(=O)Nc2cn(Cc3ccncc3)cn2)C1` [Example 170, (S)-1-cyano-N-(1-(pyridin-4-ylmethyl)-1H-imidazol-4-yl)pyrrolidine-3-carboxamide], the IC50 is under 1 µM.

Take `CNC(=O)c1cccc(-c2cnc(NC(=O)[C@H]3CCN(C#N)C3)s2)c1` [Example 233, (S)-1-cyano-N-(5-(3-(methylcarbamoyl)phenyl)thiazol-2-yl)pyrrolidine-3-carboxamide]: the IC50 is under 1 µM.

Take `N#CN1CC[C@H](C(=O)Nc2ncc(-c3ccnnc3)s2)C1` [Example 213, (S)-1-cyano-N-(5-(pyridazin-4-yl)thiazol-2-yl)pyrrolidine-3-carboxamide]: the IC50 is under 1 µM.

As for `CC(=O)Nc1ccccc1-c1cnc(NC(=O)C2CCN(C#N)C2)s1` (stereo not drawn) [Example 115, N-(5-(2-acetamiclophenyl)thiazol-2-yl)-1-cyanopyrrolidine-3-carboxamide], the IC50 fell in the range of 1 to 10 µM.

Take `CC(C)(C)c1cnc(NC(=O)C2CCN(C#N)C2)s1` (stereo not drawn) [Example 8, N-(5-(tert-butyl)thiazol-2-yl)-1-cyano-pyrrolidine-3-carboxamide]: the IC50 was in the range of 1 to 10 µM.

As to `CC(C)(C)c1ccnc(NC(=O)[C@H]2CCN(C#N)C2)c1` [Example 273, (S)-N-(4-(tert-butyl)pyridin-2-yl)-1-cyanopyrrolidine-3-carboxamide], the IC50 fell in the range of 1 to 10 µM.

Consider `C[C@H]1[C@@H](C(=O)Nc2cn(Cc3ccccc3)cn2)CCN1C#N` [Example 149, (2S,3S)—N-(1-benzyl-1H-imidazol-4-yl)-1-cyano-2-methylpyrrolidine-3-carboxamide], for which the IC50 is under 1 µM.

For the compound `N#CN1CC[C@H](C(=O)Nc2cn(C3CCCN(C(=O)c4ccccc4)C3)cn2)C1` (stereo partly drawn) [Example 184, (3S)—N-(1-(1-benzoylpiperidin-3-yl)-1H-imidazol-4-yl)-1-cyanopyrrolidine-3-carboxamide], the IC50 was under 1 µM.

In the case of `N#Cc1ccc(-c2cnc(NC(=O)[C@H]3CCN(C#N)C3)s2)cc1OC(F)(F)F` [Example 219, (S)-1-cyano-N-(5-(4-cyano-3-(trifluoromethoxy)phenyl)thiazol-2-yl)pyrrolidine-3-carboxamide], the IC50 is under 1 µM.

Consider `Cc1nc(NC(=O)[C@H]2CCN(C#N)C2)cn1Cc1ccccc1` [Example 178, (S)—N-(1-benzyl-2-methyl-1H-imidazol-4-yl)-1-cyanopyrrolidine-3-carboxamide], for which the IC50 is under 1 µM.

The values above are taken from patent publication US11472798B2 (Mission Therapeutics Limited, priority 2014, dated 2022).
